# Measurements published in US9708314B2, “Heterocyclic amide compound” (NISSAN CHEMICAL INDUSTRIES, LTD., priority 2013, dated 2017).
# Tests used:
# Type in all cases: in vivo
# [1] = test system: Beta vulgaris ssp. vulgaris; test: Test Example 4: effect on crop by application to foliage (diluvial soil, plastic box); conditions: for f (Beta vulgaris ssp. vulgaris) effect on crop grade: Application herbicide amount 320 g/ha, foliage application; for f: effect on crop, Beta vulgaris ssp. vulgaris: application to foliage, application herbicide amount 320 g/ha
# Method in brief: (§1)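 Plants were grown in sterilized diluvial soil in a greenhouse at 25-30° C for 14 days, then sprayed on stems and leaves with water-diluted emulsion formulation at set rates in g/ha. Weed control and crop injury were scored 3 weeks after treatment on a 0-5 herbicidal-ratio scale, from 0 (≤5%) to 5 (≥90%).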
# Zea mays = test: as above; conditions: for c (Zea mays) effect on crop grade: Application herbicide amount 320 g/ha, foliage application; for c: effect on crop, Zea mays: application to foliage, application herbicide amount 320 g/ha
# Method in brief: as §1
# [2] = test system: directly sowed Oryza sativa; test: as above; conditions: for b (directly sowed Oryza sativa) effect on crop grade: Application herbicide amount 320 g/ha, foliage application; for b: effect on crop, directly sowed Oryza sativa: application to foliage, application herbicide amount 320 g/ha
# Method in brief: as §1
# Triticum aestivum = test: as above; conditions: for e (Triticum aestivum) effect on crop grade: Application herbicide amount 320 g/ha, foliage application; for e: effect on crop, Triticum aestivum: application to foliage, application herbicide amount 320 g/ha
# Method in brief: as §1
# Brassica campestris L. = test: as above; conditions: for g (Brassica campestris L.) effect on crop grade: Application herbicide amount 320 g/ha, foliage application; for g: effect on crop, Brassica campestris L.: application to foliage, application herbicide amount 320 g/ha
# Method in brief: as §1
# Glycine max = test: as above; conditions: for d (Glycine max) effect on crop grade: Application herbicide amount 320 g/ha, foliage application; for d: effect on crop, Glycine max: application to foliage, application herbicide amount 320 g/ha
# Method in brief: as §1
# Alopecurus myosuroides = test: Test Example 4: herbicidal effect by application to foliage (diluvial soil, plastic box); conditions: for J (Alopecurus myosuroides) herbicidal effect grade: Application herbicide amount 320 g/ha, foliage application; for J: herbicidal effect on Alopecurus myosuroides: application to foliage, application herbicide amount 320 g/ha
# Method in brief: as §1
# Apera spica-venti. = test: as above; conditions: for L (Apera spica-venti.) herbicidal effect grade: Application herbicide amount 320 g/ha, foliage application; for L: herbicidal effect on Apera spica-venti.: application to foliage, application herbicide amount 320 g/ha
# Method in brief: as §1
# Lolium multiflorum Lam. = test: as above; conditions: for K (Lolium multiflorum Lam.) herbicidal effect grade: Application herbicide amount 320 g/ha, foliage application; for K: herbicidal effect on Lolium multiflorum Lam.: application to foliage, application herbicide amount 320 g/ha
# Method in brief: as §1
# Galium spurium = test: as above; conditions: for Q (Galium spurium) herbicidal effect grade: Application herbicide amount 320 g/ha, foliage application; for Q: herbicidal effect on Galium spurium: application to foliage, application herbicide amount 320 g/ha
# Method in brief: as §1
# Avena fatua = test: as above; conditions: for I (Avena fatua) herbicidal effect grade: Application herbicide amount 320 g/ha, foliage application; for I: herbicidal effect on Avena fatua: application to foliage, application herbicide amount 320 g/ha
# Method in brief: as §1
# Amaranthus retroflexus = test: as above; conditions: for N (Amaranthus retroflexus) herbicidal effect grade: Application herbicide amount 320 g/ha, foliage application; for N: herbicidal effect on Amaranthus retroflexus: application to foliage, application herbicide amount 320 g/ha
# Method in brief: as §1
# Veronica persica = test: as above; conditions: for R (Veronica persica) herbicidal effect grade: Application herbicide amount 320 g/ha, foliage application; for R: herbicidal effect on Veronica persica: application to foliage, application herbicide amount 320 g/ha
# Method in brief: as §1
# Abutilon theophrasti = test: as above; conditions: for M (Abutilon theophrasti) herbicidal effect grade: Application herbicide amount 320 g/ha, foliage application; for M: herbicidal effect on Abutilon theophrasti: application to foliage, application herbicide amount 320 g/ha
# Method in brief: as §1
# Digitaria ciliaris = test: as above; conditions: for F (Digitaria ciliaris) herbicidal effect grade: Application herbicide amount 320 g/ha, foliage application; for F: herbicidal effect on Digitaria ciliaris: application to foliage, application herbicide amount 320 g/ha
# Method in brief: as §1
# [3] = test system: Echinochloa crus-galli var. crus-galli; test: as above; conditions: for H (Echinochloa crus-galli var. crus-galli) herbicidal effect grade: Application herbicide amount 320 g/ha, foliage application; for H: herbicidal effect on Echinochloa crus-galli var. crus-galli: application to foliage, application herbicide amount 320 g/ha
# Method in brief: as §1
# Stellaria media = test: as above; conditions: for P (Stellaria media) herbicidal effect grade: Application herbicide amount 320 g/ha, foliage application; for P: herbicidal effect on Stellaria media: application to foliage, application herbicide amount 320 g/ha
# Method in brief: as §1
# Chenopodium album = test: as above; conditions: for O (Chenopodium album) herbicidal effect grade: Application herbicide amount 320 g/ha, foliage application; for O: herbicidal effect on Chenopodium album: application to foliage, application herbicide amount 320 g/ha
# Method in brief: as §1
# Monochoria vaginalis = test: Test Example 2: herbicidal activity, application during weed generation in submerged conditions; conditions: Eighteenth Table; application herbicide amount 320 g/ha
# Method in brief: (§2)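 Mixed sowings in flooded alluvial soil (4 cm water), greenhouse 25-30 °C; emulsifiable concentrate diluted in water applied to the water surface at the 1-2 leaf stage, rate in g/ha. Effect scored three weeks later on a 0-5 scale (5 = ≥90% herbicidal ratio, 0 = ≤5%).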
# Scirpus juncoides = test: as above; conditions: Eighteenth Table; application herbicide amount 320 g/ha
# Method in brief: as §2
# [4] = test system: Echinochloa oryzacola Vasing.; test: as above; conditions: Eighteenth Table; application herbicide amount 320 g/ha
# Method in brief: as §2
Structure (SMILES),f (Beta vulgaris ssp. vulgaris) effect on crop grade [1],c (Zea mays) effect on crop grade (Zea mays),b (directly sowed Oryza sativa) effect on crop grade [2],e (Triticum aestivum) effect on crop grade (Triticum aestivum),g (Brassica campestris L.) effect on crop grade (Brassica campestris L.),d (Glycine max) effect on crop grade (Glycine max),J (Alopecurus myosuroides) herbicidal effect grade (Alopecurus myosuroides),L (Apera spica-venti.) herbicidal effect grade (Apera spica-venti.),K (Lolium multiflorum Lam.) herbicidal effect grade (Lolium multiflorum Lam.),Q (Galium spurium) herbicidal effect grade (Galium spurium),I (Avena fatua) herbicidal effect grade (Avena fatua),N (Amaranthus retroflexus) herbicidal effect grade (Amaranthus retroflexus),R (Veronica persica) herbicidal effect grade (Veronica persica),M (Abutilon theophrasti) herbicidal effect grade (Abutilon theophrasti),F (Digitaria ciliaris) herbicidal effect grade (Digitaria ciliaris),H (Echinochloa crus-galli var. crus-galli) herbicidal effect grade [3],P (Stellaria media) herbicidal effect grade (Stellaria media),C (Monochoria vaginalis) herbicidal ratio grade (Monochoria vaginalis),B (Scirpus juncoides) herbicidal ratio grade (Scirpus juncoides),A (Echinochloa oryzicola Vasing.) herbicidal ratio grade [4],also measured
CCCSc1nnc2c(C(=O)Nc3nnco3)ccc(C(F)(F)F)n12 [1-108],5 (Herbicidal ratio of 90% or more (almost completely withered)),1 (Herbicidal ratio of 5% or more and less than 20%),1 (Herbicidal ratio of 5% or more and less than 20%),1 (Herbicidal ratio of 5% or more and less than 20%),3 (Herbicidal ratio of 40% or more and less than 70%),4 (Herbicidal ratio of 70% or more and less than 90%),1 (Herbicidal ratio of 5% or more and less than 20%),2 (Herbicidal ratio of 20% or more and less than 40%),2 (Herbicidal ratio of 20% or more and less than 40%),3 (Herbicidal ratio of 40% or more and less than 70%),2 (Herbicidal ratio of 20% or more and less than 40%),5 (Herbicidal ratio of 90% or more (almost completely withered)),5 (Herbicidal ratio of 90% or more (almost completely withered)),4 (Herbicidal ratio of 70% or more and less than 90%),5 (Herbicidal ratio of 90% or more (almost completely withered)),5 (Herbicidal ratio of 90% or more (almost completely withered)),5 (Herbicidal ratio of 90% or more (almost completely withered)),3 (Herbicidal ratio of 40% or more and less than 70%),4 (Herbicidal ratio of 70% or more and less than 90%),4 (Herbicidal ratio of 70% or more and less than 90%),O (Chenopodium album) herbicidal effect grade (Chenopodium album): 5 (Herbicidal ratio of 90% or more (almost completely withered))
Cn1nnnc1NC(=O)c1ccc(C(F)(F)F)n2c(C3CCCC3)nnc12 [2-021],,,,,,,,,,,,,,,,,,4 (Herbicidal ratio of 70% or more and less than 90%),4 (Herbicidal ratio of 70% or more and less than 90%),5 (Herbicidal ratio of 90% or more (almost completely withered)),"f: effect on crop, Beta vulgaris ssp. vulgaris [1]: 5 (Herbicidal ratio of 90% or more (almost completely withered)); c: effect on crop, Zea mays (Zea mays): 0 (Herbicidal ratio of 5% or less (almost no effect)); b: effect on crop, directly sowed Oryza sativa [2]: 4 (Herbicidal ratio of 70% or more and less than 90%); e: effect on crop, Triticum aestivum (Triticum aestivum): 3 (Herbicidal ratio of 40% or more and less than 70%); g: effect on crop, Brassica campestris L. (Brassica campestris L.): 4 (Herbicidal ratio of 70% or more and less than 90%); d: effect on crop, Glycine max (Glycine max): 4 (Herbicidal ratio of 70% or more and less than 90%); J: herbicidal effect on Alopecurus myosuroides (Alopecurus myosuroides): 3 (Herbicidal ratio of 40% or more and less than 70%); L: herbicidal effect on Apera spica-venti. (Apera spica-venti.): 4 (Herbicidal ratio of 70% or more and less than 90%); K: herbicidal effect on Lolium multiflorum Lam. (Lolium multiflorum Lam.): 3 (Herbicidal ratio of 40% or more and less than 70%); Q: herbicidal effect on Galium spurium (Galium spurium): 4 (Herbicidal ratio of 70% or more and less than 90%); I: herbicidal effect on Avena fatua (Avena fatua): 3 (Herbicidal ratio of 40% or more and less than 70%); N: herbicidal effect on Amaranthus retroflexus (Amaranthus retroflexus): 5 (Herbicidal ratio of 90% or more (almost completely withered)); R: herbicidal effect on Veronica persica (Veronica persica): 5 (Herbicidal ratio of 90% or more (almost completely withered)); M: herbicidal effect on Abutilon theophrasti (Abutilon theophrasti): 5 (Herbicidal ratio of 90% or more (almost completely withered)); F: herbicidal effect on Digitaria ciliaris (Digitaria ciliaris): 5 (Herbicidal ratio of 90% or more (almost completely withered)); H: herbicidal effect on Echinochloa crus-galli var. crus-galli [3]: 5 (Herbicidal ratio of 90% or more (almost completely withered)); P: herbicidal effect on Stellaria media (Stellaria media): 5 (Herbicidal ratio of 90% or more (almost completely withered)); O: herbicidal effect on Chenopodium album (Chenopodium album): 5 (Herbicidal ratio of 90% or more (almost completely withered))"
O=C(Nc1nnco1)c1ccc(C(F)(F)F)n2c(C3CC3)nnc12 [1-144],5 (Herbicidal ratio of 90% or more (almost completely withered)),0 (Herbicidal ratio of 5% or less (almost no effect)),0 (Herbicidal ratio of 5% or less (almost no effect)),1 (Herbicidal ratio of 5% or more and less than 20%),4 (Herbicidal ratio of 70% or more and less than 90%),4 (Herbicidal ratio of 70% or more and less than 90%),1 (Herbicidal ratio of 5% or more and less than 20%),0 (Herbicidal ratio of 5% or less (almost no effect)),1 (Herbicidal ratio of 5% or more and less than 20%),3 (Herbicidal ratio of 40% or more and less than 70%),2 (Herbicidal ratio of 20% or more and less than 40%),4 (Herbicidal ratio of 70% or more and less than 90%),4 (Herbicidal ratio of 70% or more and less than 90%),2 (Herbicidal ratio of 20% or more and less than 40%),3 (Herbicidal ratio of 40% or more and less than 70%),5 (Herbicidal ratio of 90% or more (almost completely withered)),5 (Herbicidal ratio of 90% or more (almost completely withered)),3 (Herbicidal ratio of 40% or more and less than 70%),4 (Herbicidal ratio of 70% or more and less than 90%),4 (Herbicidal ratio of 70% or more and less than 90%),O (Chenopodium album) herbicidal effect grade (Chenopodium album): 5 (Herbicidal ratio of 90% or more (almost completely withered))
Cn1nnnc1NC(=O)c1ccc(C(F)(F)F)n2c(-c3ccccc3)nnc12 [2-007],,,,,,,,,,,,,,,,,,4 (Herbicidal ratio of 70% or more and less than 90%),4 (Herbicidal ratio of 70% or more and less than 90%),4 (Herbicidal ratio of 70% or more and less than 90%),"f: effect on crop, Beta vulgaris ssp. vulgaris [1]: 5 (Herbicidal ratio of 90% or more (almost completely withered)); c: effect on crop, Zea mays (Zea mays): 0 (Herbicidal ratio of 5% or less (almost no effect)); b: effect on crop, directly sowed Oryza sativa [2]: 2 (Herbicidal ratio of 20% or more and less than 40%); e: effect on crop, Triticum aestivum (Triticum aestivum): 2 (Herbicidal ratio of 20% or more and less than 40%); g: effect on crop, Brassica campestris L. (Brassica campestris L.): 4 (Herbicidal ratio of 70% or more and less than 90%); d: effect on crop, Glycine max (Glycine max): 3 (Herbicidal ratio of 40% or more and less than 70%); J: herbicidal effect on Alopecurus myosuroides (Alopecurus myosuroides): 2 (Herbicidal ratio of 20% or more and less than 40%); L: herbicidal effect on Apera spica-venti. (Apera spica-venti.): 4 (Herbicidal ratio of 70% or more and less than 90%); K: herbicidal effect on Lolium multiflorum Lam. (Lolium multiflorum Lam.): 2 (Herbicidal ratio of 20% or more and less than 40%); Q: herbicidal effect on Galium spurium (Galium spurium): 1 (Herbicidal ratio of 5% or more and less than 20%); I: herbicidal effect on Avena fatua (Avena fatua): 3 (Herbicidal ratio of 40% or more and less than 70%); N: herbicidal effect on Amaranthus retroflexus (Amaranthus retroflexus): 5 (Herbicidal ratio of 90% or more (almost completely withered)); R: herbicidal effect on Veronica persica (Veronica persica): 5 (Herbicidal ratio of 90% or more (almost completely withered)); M: herbicidal effect on Abutilon theophrasti (Abutilon theophrasti): 5 (Herbicidal ratio of 90% or more (almost completely withered)); F: herbicidal effect on Digitaria ciliaris (Digitaria ciliaris): 5 (Herbicidal ratio of 90% or more (almost completely withered)); H: herbicidal effect on Echinochloa crus-galli var. crus-galli [3]: 5 (Herbicidal ratio of 90% or more (almost completely withered)); P: herbicidal effect on Stellaria media (Stellaria media): 5 (Herbicidal ratio of 90% or more (almost completely withered)); O: herbicidal effect on Chenopodium album (Chenopodium album): 5 (Herbicidal ratio of 90% or more (almost completely withered))"
